According to patent US9382245B2, “Compounds and methods for treating HIV infections” (priority 2013, dated 2016):
Where two headings read alike, the source gives them in different places. Marks after values point to notes of the source that are not given here.

How the values were obtained:
[1] = Aqueous solubility, shake-flask procedure; format: physicochemical; conditions: for solubility at 48 h: Britton-Robinson buffer, 25 °C, pH 6.5, aqueous buffer, thermodynamic from solid
Experimental: Poor solubility, which has been a problem for many NNRTIs, often leads too low bioavailability, difficulties in formulation, and high dosages.^6,32,33 The issue reflects the hydrophobic nature of the NNRTI binding site. In the design of the catechol diethers, attention was paid to having both good potency and aqueous solubility. In our laboratory, solubilities are measured using a shake-flask procedure.^6,34 The compounds are dissolved in Britton-Robinson buffer and stirred in vials for 48 hours at 25° C. The pH of the buffer solutions is 6.5 as measured by a Corning General Purpose pH Combination probe (4136L21).

[2] = system: human MT-2 T-cells
[3] = in vitro
[4] = system: IIIB strain of HIV-1 (wild-type); experiment: microbe, parasite or virus in culture; format: cell-based
[5] = Table 2, cited from earlier work
[6] = Table 2, pH 6.5, Britton-Robinson buffer, 48 hours at 25° C., read-out: S, aqueous solubility

SMILES	CC50 ([2]; human) [µM]	CC50 ([3]; human) [µM]	also measured
N#C/C=C/c1cc(Cl)cc(Oc2ccccc2OCCn2ccc(=O)[nH]c2=O)c1 [1c, (E)-3-(3-chloro-5-(2-(2-(2,4-dioxo-3,4-dihydropyrimidin-1(2H)-yl)ethoxy)phenoxy)phenyl)acrylonitrile]	18	–	solubility at 48 h [1, 6]: 510 µg/mL; solubility at 48 h ([1]; shake-flask, pH 6.5, read-out: aqueous solubility): 510 µg/mL
N#Cc1cc2c(Oc3ccccc3OCCn3ccc(=O)[nH]c3=O)cccn2c1 [10b, 8-(2-(2-(2,4-dioxo-3,4-dihydropyrimidin-1(2H)-yl)ethoxy)phenoxy)indolizine-2-carbonitrile]	> 100	> 100	–
N#Cc1cc2cccc(Oc3ccc(F)cc3OCCn3ccc(=O)[nH]c3=O)n2c1 [11a, 5-(2-(2-(2,4-dioxo-3,4-dihydropyrimidin-1(2H)-yl)ethoxy)-4-fluorophenoxy)indolizine-2-carbonitrile]	–	> 100	fold less active, WT ([4]; 11a compared with its isomer 10f): 6 fold
N#Cc1cc2c(Oc3ccccc3OCCn3ccc(=O)[nH]c3=O)cccc2o1 [12a, 4-(2-(2-(2,4-dioxo-3,4-dihydropyrimidin-1(2H)-yl)ethoxy)phenoxy)benzofuran-2-carbonitrile]	> 100	> 100	–
N#Cc1cc2c(Oc3ccccc3OCCn3ccc(=O)[nH]c3=O)cc(Cl)cc2o1 [12c, 6-chloro-4-(2-(2-(2,4-dioxo-3,4-dihydropyrimidin-1(2H)-yl)ethoxy)phenoxy)benzofuran-2-carbonitrile]	> 100	> 100	–
N#Cc1cc2c(Oc3ccc(F)cc3OCCn3ccc(=O)[nH]c3=O)cccc2o1 [12d, 4-(2-(2-(2,4-dioxo-3,4-dihydropyrimidin-1(2H)-yl)ethoxy)-4-fluorophenoxy)benzofuran-2-carbonitrile]	> 100	> 100	–
O=c1ccn(CCOc2ccccc2Oc2cccc3ccccc23)c(=O)[nH]1 [14a, 1-(2-(2-(naphthalen-1-yloxy)phenoxy)ethyl)pyrimidine-2,4(1H,3H)-dione]	80	–	fold less active, WT ([4]; 14a compared with 14e): 100 fold
N#Cc1ccc2c(Oc3ccccc3OCCn3ccc(=O)[nH]c3=O)cccc2c1 [14e, 5-(2-(2-(2,4-dioxo-3,4-dihydropyrimidin-1(2H)-yl)ethoxy)phenoxy)-2-naphthonitrile]	> 100	> 100	fold less soluble ([1]; 14e compared with indolizine 10b): 10 fold; fold improvement in solubility ([1]; 14e over etravirine and rilpivirine): ca. 40 fold; solubility at 48 h [1, 6]: 4.3 µg/mL
N#Cc1ccc2c(Oc3ccc(F)cc3OCCn3ccc(=O)[nH]c3=O)cccc2c1 [14i, 5-(2-(2-(2,4-dioxo-3,4-dihydropyrimidin-1(2H)-yl)ethoxy)-4-fluorophenoxy)-2-naphthonitrile]	> 100	> 100	–
N#Cc1ccc2c(Oc3ccccc3OCCn3ccc(=O)[nH]c3=O)cc(F)cc2c1 [14k, 5-(2-(2-(2,4-dioxo-3,4-dihydropyrimidin-1(2H)-yl)ethoxy)phenoxy)-7-fluoro-2-naphthonitrile]	> 100	> 100	–
N#Cc1ccc2c(Oc3ccc(F)cc3OCCn3ccc(=O)[nH]c3=O)cc(F)cc2c1 [14l, 5-(2-(2-(2,4-dioxo-3,4-dihydropyrimidin-1(2H)-yl)ethoxy)-4-fluorophenoxy)-7-fluoro-2-naphthonitrile]	> 100	> 100	–
O=C1Nc2ccc(Cl)cc2[C@@](C#CC2CC2)(C(F)(F)F)O1 [efavirenz, reference compound]	–	–	EC50 ([4]; Human immunodeficiency virus 1, IIIB, MT2, read-out: WT EC50): 0.002 µM
Cc1cc(C#N)cc(C)c1Oc1nc(Nc2ccc(C#N)cc2)nc(N)c1Br [etravirine]	–	–	S, aqueous solubility ([5]; Ref. 36): <<1^b μg/mL
Cc1ccnc2c1NC(=O)c1cccnc1N2C1CC1 [nevirapine, reference compound]	–	–	S, aqueous solubility ([5]; Ref. 35): 167^a μg/mL; CC50 [3]: > 100 µM; CC50 ([2]; Table 3, 50% inhibition of MT-2 cell growth): > 100 µM; CC50 ([2]; Table 4, 50% inhibition of MT-2 cell growth): > 100 µM
